Patent US6506876B1, “LTA4 hydrolase inhibitor pharmaceutical compositions and methods of use” (G.D. Searle & Co., priority 1994, dated 2003)
Structures can show the parent of a compound that is named as a salt. Where two headings read alike, the source gives them in different places.

Experiments:
[1] = tested on: LTB4 production in human whole blood (LTA4 hydrolase); assay: LTB4 production by calcium ionophore stimulated human blood; assay type: cell-based; conditions: read-out: Inhibition of Calcium Ionophore-Induced LTB4 Production in Human Blood IC50 HWB
Description: LTB4 and Thromboxane Production by Calcium Ionophore Stimulated Human Blood for LTA4 Hydrolase Inhibitor Activity
One or more concentrations of the leukotriene A4 hydrolase inhibitor compounds being tested were prepared (diluted in DMSO) and 2 μl added and gently mixed with the diluted whole blood. After incubating for 15 minutes at 37° C. in a humidified incubator, calcium ionophore A23187 (Sigma Chemical Co., St. Louis, Mo.) was added to a final concentration of 20 mcg/ml and the incubation continued under the same conditions for an additional 10 minutes to allow LTB4 formation. The reaction was terminated by centrifugation (833 g, 10 minutes at 4° C.) and supernatant were analyzed for LTB4 and thromboxane by commercially available enzyme-linked immunoassays (Caymen Chemical Co., Ann Arbor, Mich.) according to the manufacturer's instructions. The IC50 of each test compound was determined from the amount of inhibition of LTB4 production as compared to an essentially identical assay in which no inhibitor compound was present.

[2] = molecular target: T1, recombinant human LTA4 hydrolase (rhLTA4H) (Homo sapiens, UniProt P09960); assay: Recombinant human LTA4 hydrolase assay for LTA4 hydrolase inhibitor activity; conditions: Recombinant Human LTA4 Hydrolase Assay IC50 LTA4H, recombinant hLTA4H
T1 sequence (P09960 1-611): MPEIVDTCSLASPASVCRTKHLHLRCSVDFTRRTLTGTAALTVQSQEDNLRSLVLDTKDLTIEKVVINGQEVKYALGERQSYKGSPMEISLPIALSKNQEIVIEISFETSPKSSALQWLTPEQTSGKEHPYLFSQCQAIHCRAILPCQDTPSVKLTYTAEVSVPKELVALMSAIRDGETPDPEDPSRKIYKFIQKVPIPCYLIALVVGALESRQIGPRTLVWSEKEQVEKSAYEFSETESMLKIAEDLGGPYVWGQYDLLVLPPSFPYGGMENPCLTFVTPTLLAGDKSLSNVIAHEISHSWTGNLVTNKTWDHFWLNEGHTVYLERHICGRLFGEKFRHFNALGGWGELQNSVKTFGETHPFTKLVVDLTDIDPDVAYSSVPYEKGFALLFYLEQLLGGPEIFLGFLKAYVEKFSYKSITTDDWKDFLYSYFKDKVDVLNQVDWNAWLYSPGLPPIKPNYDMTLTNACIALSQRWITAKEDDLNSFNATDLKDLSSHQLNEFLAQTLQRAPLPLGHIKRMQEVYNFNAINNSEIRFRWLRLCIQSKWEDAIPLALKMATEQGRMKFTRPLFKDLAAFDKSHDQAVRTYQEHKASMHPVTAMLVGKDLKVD
Description: One or more predetermined amounts of a compound of the invention were incubated in assay buffer (0.1 M potassium phosphate, 5 mg/ml fatty acid free BSA, 10% DMSO, pH 7.4) for 10 minutes at room temperature with 250 ng of recombinant hLTA4H to allow binding, if any, between the enzyme and inhibitor. The stock enzyme solution was 1 mg/ml LTA4 hydrolase, 50 mM Tris, pH 8.0, 150 mM NaCl, 2.5 mM beta-mercaptoethanol, 50% glycerol. […] Each reaction was carried out at room temperature for 10 minutes. The reaction was stopped by diluting 25 μl of the reaction mixture with 500 μl of the assay buffer without DMSO. LTB4 was quantified in the diluted sample by a commercially available enzyme-linked immunoassay [Caymen Chemical Co., Ann Arbor, Mich.] using the method recommended in the manufacturer's instructions and compared to the amount of LTB4 produced in a negative control (i.e., essentially identical conditions except without addition of an inhibitor compound). The IC50 was routinely calculated from the data produced.

[3] = tested on: LTB4 production in mouse blood (LTA4 hydrolase); assay: Ex vivo LTB4 production by calcium ionophore stimulated mouse blood after oral dosing; assay type: in vivo
Procedure, shortened: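 Male outbred mice dosed by oral gavage, 10 mg/kg (some at 50 mg/kg) in PBS with 2% DMSO and 1% Tween 80; heparinised blood taken at 60 min, calcium ionophore-stimulated 10 minutes at 37° C. LTB4 and thromboxane by ELISA; % inhibition against vehicle-dosed animals.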

LTA4 hydrolase = molecular target: T2, LTA4 hydrolase (Homo sapiens, UniProt P09960); conditions: background statement; cited from earlier work
T2 sequence (P09960 1-611): T1 sequence (P09960 1-611)

[4] = Homo sapiens, human whole blood, A23187
[5] = mouse, oral gavage, 1 hour after administration of 10 mg/kg; read-out: Murine Ex Vivo LTB4 Inhibition % I LTB4
[6] = Mus musculus, po, 1 h; read-out: Murine Ex Vivo LTB4 Inhibition % I LTB4
[7] = Mus musculus, po, 1 h, read-out: Murine Ex Vivo LTB4 Inhibition % I LTB4

Row | SMILES | melting point | IC50 [1, 4] | IC50 [2] | inhibition in vivo at 10 mg/kg [3, 5] | also measured
1 | c1ccc(Oc2ccc(NCCN3CCCC3)cc2)cc1 (as salt: HCl) [Example 71, N-(4-phenoxyphenyl)-1-pyrrolidine ethanamine, monohydrochloride] | 202 to 202.5 °C | – | – | – | –
2 | c1ccc(Cc2ccc(OCCn3cnc4cnccc43)cc2)cc1 [340 B] | – | 330 nM | 120 nM | 64% | –
3 | c1ccc(Oc2ccc(OCCCn3cnc4cnccc43)cc2)cc1 [351 B] | – | 2080 nM | 290 nM | 71% | –
4 | c1ccc(Cc2ccc3c(c2)CC(Cn2cnc4cnccc42)O3)cc1 (centres unmarked) [358 B] | – | – | 410 nM | – | IC50 ([1]; human whole blood, A23187): 640 nM; inhibition in vivo at 10 mg/kg [3, 6]: 33%
5 | c1ccc(Cc2ccc3c(c2)CC(Cn2ccc4ncnc-4c2)O3)cc1 (centres unmarked) [358 C] | – | – | 87 nM | – | IC50 ([1]; human whole blood, A23187): 590 nM; inhibition in vivo at 10 mg/kg [3, 6]: 13%
6 | Cl.c1ccc(Cc2ccc(SCCN3CCCC3)cc2)cc1 [Example 68, 1-[2-[4-(phenylmethyl)phenylthio]ethyl]pyrrolidine, monohydrochloride] | 137 to 139 °C | – | – | – | –
7 | [O-][S+](CCN1CCCC1)c1ccc(Cc2ccccc2)cc1 (centres unmarked) [Example 69, 1-[2-[4-(phenylmethyl)phenylsulfinyl]ethyl]pyrrolidine, monohydrochloride] | – | – | 6520 nM | – | IC50 ([1]; Homo sapiens): 11800 nM; inhibition in vivo at 10 mg/kg [3, 7]: 13%
8 | OCCOc1ccc(Oc2ccc(F)cc2)cc1 [Example 161] | 78 to 79 °C | – | – | – | –
9 | Oc1ccc(OCCN2CCCC2)cc1 [Example 199] | 113 to 115 °C | – | – | – | –
10 | CCOC(=O)C1CCN(CCOc2ccc(Cc3ccccc3)cc2)CC1 [Example 245] | – | – | 1770 nM | – | IC50 ([1]; Homo sapiens): 147 nM; inhibition in vivo at 10 mg/kg [3, 7]: 97%
11 | COC(=O)C1CC2CCC(C1)N2CC1Cc2cc(Cc3ccccc3)ccc2O1 (centres unmarked) [Example 283] | – | – | 19 nM | – | IC50 ([1]; Homo sapiens): 90 nM; inhibition in vivo at 10 mg/kg [3, 7]: 90%
12 | CN(CCCOc1ccc(Cc2ccccc2)cc1)CCC(=O)O [Example 434] | 113 to 116 °C | – | – | – | inhibition in vivo at 10 mg/kg [3, 7]: 100%
13 | CC(C)C[C@H](NC(=O)[C@@H](O)[C@H](N)Cc1ccccc1)C(=O)O [bestatin] | – | – | – | – | LTA4 hydrolase inhibitory activity (LTA4 hydrolase): exhibit LTA4 hydrolase inhibitory activity
14 | C[C@H](CS)C(=O)N1CCC[C@H]1C(=O)O [captopril] | – | – | – | – | LTA4 hydrolase inhibitory activity (LTA4 hydrolase): exhibit LTA4 hydrolase inhibitory activity

The next lines start with results.

Row | melting point | IC50 [1, 4] | IC50 [2] | SMILES | inhibition in vivo at 10 mg/kg [3, 5] | also measured
15 | – | 450 nM | 77 nM | CCOC(=O)CCNCCCOc1ccc(Cc2ccccc2)cc1 [Example 265] | 54% | –
16 | – | 169 nM | 93 nM | NC(=O)C1CCN(CC2Cc3cc(Cc4ccccc4)ccc3O2)CC1 (centres unmarked) [Example 281] | 83% | –
17 | – | 470 nM | 220 nM | c1ccc(Cc2ccc(OCCN3CCCCCCC3)cc2)cc1 [Example 398] | 0% | –
18 | 165 to 169 °C | – | 110 nM | O=C(O)[C@@H]1CCCN1CCCOc1ccc(Cc2ccccc2)cc1 [Example 430] | 37% | –
19 | 165 to 167 °C | 280 nM | – | O=C(O)CCNCCCOc1ccc(Cc2ccccc2)cc1 [Example 431] | 71% | –
20 | 140 to 141 °C | – | – | O=C(O)CCNCCCCOc1ccc(Cc2ccccc2)cc1 [Example 433] | 71% | –
21 | 132 to 134 °C | 350 nM | – | NC(=O)NC1CCN(CCOc2ccc(Cc3ccccc3)cc2)C1 (centres unmarked) [Example 453] | 92% | –
22 | – | 440 nM | – | NC(=O)NC1CCN(CCOc2ccc(Cc3ccccc3)cc2)CC1 [Example 456] | 72% | –
23 | – | 2400 nM | – | NC(=O)N1CCN(CCOc2ccc(Cc3ccccc3)cc2)CC1 [Example 459] | 44% | –
24 | – | 280 nM | 10 nM | NCCOc1ccc(Cc2ccccc2)cc1 [Example 496] | 54% | –
25 | 37 to 38 °C | – | 200 nM | C1=CC2CC1CN2CCOc1ccc(Cc2ccccc2)cc1 (centres unmarked) [Example 497] | 45% | –
